From patent publication US8557862B2, “Synergistic antimicrobial composition” (Dow Global Technologies LLC, priority 2009, dated 2013)

System: oil field isolated anaerobic SRB consortium
Assay: Biocidal efficacy (MBC for complete bacteria kill) against sulfate reducing bacteria
Assay type: cell-based, Sulfate Reducing Bacteria (SRB)
Conditions: minimum tested biocide concentration for complete bacteria kill, alone or in the blend, 40° C., 24 hour, anaerobic salt solution, 10^6 to 10^7 CFU/mL
Method: Inside an anaerobic chamber (BACTRON III), a deaerated sterile salt solution (3.1183 g of NaCl, […] of NaHCO3, 47.70 mg of KCl, 72.00 mg of CaCl2, 54.49 mg of MgSO4, 172.28 mg of Na2SO4, 43.92 mg of Na2CO3 in 1 L water) was contaminated with an oil field isolated anaerobic SRB consortium at final bacterial concentrations of 10^6 to 10^7 CFU/mL. The aliquots of this contaminated water were then treated with glutaraldehyde and DXN, or the glutaraldehyde/DXN combination at different active concentration levels. After the mixtures were incubated at 40° C. for 24 hour, the biocidal efficacy was determined by minimum tested biocide concentration for complete bacteria kill in the aliquots (MBC). Table 1 summarizes the efficacy of each biocide and their blends, and the Synergy Index* of each combination.

Row | Compound | MBC (active ppm) DXN (DXN concentration) | MBC (active ppm) glut (glutaraldehyde concentration)
1 | CC(=O)OC1CC(C)OC(C)O1 (centres unmarked) [0:1, 2,6-dimethyl-1,3-dioxan-4-yl acetate] | 333.33 active ppm | 
2 | O=CCCCC=O [1:0, glutaraldehyde] |  | 2.63 active ppm
